The text below walks through data of paper PMC4440699 (MedChemComm, 2014).

What is called IC50 is the concentration that gives 50% inhibition.

One series relates to MV-4-11 leukemia cells. In words: Growth inhibition of cultured MV-4-11 leukemia cells. The format is cell-based. The following applies: for growth inhibitor activity in the MV-4-11 cell line: 24 hours exposure, 1 to 100 μM.
A short description of the next series: Solubility observations. Format: physicochemical. The following applies: greater concentration required more than 1% DMSO.
The subject of another series is p21^WAF1/CIP1. In words: p21WAF1/CIP1 levels in MV-4-11 leukemia cells by Western blotting. The following applies: MV-4-11 cells. The format is cell-based. On the technique in general: In western blotting, separated proteins are transferred to a membrane and probed.
Another series deals with HDAC1 (Homo sapiens, UniProt Q13547). In words: HDAC1 inhibition, human recombinant HDAC isoform survey. The format is biochemical.
Chain of HDAC1 (Q13547 whole entry, canonical isoform): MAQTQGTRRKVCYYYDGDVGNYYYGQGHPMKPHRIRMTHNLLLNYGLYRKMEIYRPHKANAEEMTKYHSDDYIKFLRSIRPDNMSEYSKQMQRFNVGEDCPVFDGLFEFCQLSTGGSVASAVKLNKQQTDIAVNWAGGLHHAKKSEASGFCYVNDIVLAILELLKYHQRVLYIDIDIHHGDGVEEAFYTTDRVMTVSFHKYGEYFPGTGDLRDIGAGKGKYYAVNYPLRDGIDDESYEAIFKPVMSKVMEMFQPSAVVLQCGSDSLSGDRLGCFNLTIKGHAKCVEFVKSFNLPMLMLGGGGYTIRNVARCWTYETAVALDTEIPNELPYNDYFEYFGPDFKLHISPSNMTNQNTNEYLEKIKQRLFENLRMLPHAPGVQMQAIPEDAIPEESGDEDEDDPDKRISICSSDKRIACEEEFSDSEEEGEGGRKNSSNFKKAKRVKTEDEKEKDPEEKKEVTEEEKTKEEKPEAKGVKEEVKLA
Series [1] can be described thus: Zinc binding affinity by isothermal calorimetry. The following applies: ITC, 25 °C.
Another series relates to acetylated H3K9. The following applies: MV-4-11 cells.
A further series addresses T1, HDAC8 (Homo sapiens, UniProt Q9BY41).
T1 sequence (Q9BY41 1-377): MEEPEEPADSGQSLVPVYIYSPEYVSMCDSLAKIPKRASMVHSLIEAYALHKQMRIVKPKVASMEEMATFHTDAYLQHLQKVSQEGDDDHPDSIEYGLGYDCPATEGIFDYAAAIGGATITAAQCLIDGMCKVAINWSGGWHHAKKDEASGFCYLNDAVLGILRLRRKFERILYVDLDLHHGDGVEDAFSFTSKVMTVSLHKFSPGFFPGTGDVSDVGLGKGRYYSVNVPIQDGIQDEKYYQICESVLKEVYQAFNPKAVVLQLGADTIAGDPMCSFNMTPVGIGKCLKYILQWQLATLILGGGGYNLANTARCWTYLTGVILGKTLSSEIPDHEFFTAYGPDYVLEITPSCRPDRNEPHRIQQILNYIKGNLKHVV
In words: HDAC8 inhibition, human recombinant HDAC isoform survey. Format: biochemical.

The target in a further series is T2, HDAC10 (Homo sapiens, UniProt Q969S8).
T2 sequence (Q969S8 1-669): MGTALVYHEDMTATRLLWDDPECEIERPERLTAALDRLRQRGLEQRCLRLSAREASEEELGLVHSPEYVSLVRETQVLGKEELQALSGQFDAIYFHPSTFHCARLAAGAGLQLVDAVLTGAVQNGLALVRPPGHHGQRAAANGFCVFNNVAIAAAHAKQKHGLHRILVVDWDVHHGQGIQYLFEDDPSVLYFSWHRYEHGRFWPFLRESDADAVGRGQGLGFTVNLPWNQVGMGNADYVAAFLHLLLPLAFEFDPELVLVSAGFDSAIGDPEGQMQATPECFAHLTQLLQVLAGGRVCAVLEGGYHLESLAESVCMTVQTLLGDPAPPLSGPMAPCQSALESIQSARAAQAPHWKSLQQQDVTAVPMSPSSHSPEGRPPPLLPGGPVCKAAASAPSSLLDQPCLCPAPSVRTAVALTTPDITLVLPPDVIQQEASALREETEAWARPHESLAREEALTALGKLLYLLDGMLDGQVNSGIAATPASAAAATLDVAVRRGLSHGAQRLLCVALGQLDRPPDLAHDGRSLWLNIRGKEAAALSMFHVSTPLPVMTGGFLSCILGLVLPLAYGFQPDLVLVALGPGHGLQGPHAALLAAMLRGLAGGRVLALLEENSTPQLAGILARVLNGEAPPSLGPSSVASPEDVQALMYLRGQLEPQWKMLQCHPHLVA
In words: HDAC10 inhibition, human recombinant HDAC isoform survey. The format is biochemical. To be noted: from % inhibition at 20 μM.

As to `O=C(NC(c1ccccc1)c1ccccc1)c1coc(-c2ccccc2O)n1` [Compound 10], the “difference in cellular IC50 value against MV4-11 cells between SAHA and compound 10” value in the series with MV-4-11 leukemia cells (SAHA 0.7 μM vs 10 7.5 μM) is on record as 10.7 fold. The “solution concentration attainable without more than 1% DMSO” value in the series “Solubility observations” was not above 20 µM. Also, in the series on p21^WAF1/CIP1, the “amount of p21Waf1/CIP1 induced relative to 0.5 μM of SAHA” value is “comparable amount”. The “p21^WAF1/CIP1 expression” value with p21^WAF1/CIP1 (concentrations between 1.0 and 10.0 μM) was “dose-dependent increase”. Also, the IC50 at HDAC1 is less than 20 µM. In addition, the “ΔG, binding to Zn^++” value in series [1] was -5.103 kcal/mol. In series [1] (compound in methanol, zinc in 50mM HEPES pH 7.0), the “KA, binding to Zn^++” value is recorded as 4,937 M^-1. In the series on acetylated H3K9, the “amount of acetylated H3K9 induced relative to 0.5 μM of SAHA” value is reported as “comparable amount”. In addition, in the series with acetylated H3K9 (Western blot), the “concentration producing an increase in H3K9 acetylation equivalent to 0.5 μM SAHA” value came to 2.5 µM and the “concentration with measurable increase in cellular levels of acetylated H3K9” value is not below 2.5 µM. The “change in H3K9 acetylation” value in the series on acetylated H3K9 (concentrations between 1.0 and 10 μM) is “dose-dependent change in acetylation”. For the same compound, at HDAC8, the “inhibitory activity against HDAC8” value was “very poor inhibitory activity”.
Regarding `O=C(NCCC(c1ccccc1)c1ccccc1)c1coc(-c2ccccc2O)n1` [Compound 12], the “growth inhibitor activity in the MV-4-11 cell line” value in the series on MV-4-11 leukemia cells was “inactive”.
On the same count and under the same terms, the result for `O=C(Nc1ccc(-c2ccccc2)cc1)c1coc(-c2ccccc2O)n1` [Compound 13] reads “inactive”; that for `O=C(NCc1ccc(-c2ccccc2)cc1)c1coc(-c2ccccc2O)n1` [Compound 14], “inactive”.
Regarding `O=C(NCCCCNC(=S)NCCC(c1ccccc1)c1ccccc1)c1coc(-c2ccccc2O)n1` [Compound 19], the isoform selectivity entry on HDAC10 is on record as “moderately selective for HDAC10”.
For the compound `O=C(Nc1ccccc1)c1ccc(CNC(=O)c2coc(-c3ccccc3O)n2)cc1` [Compound 23], the isoform selectivity result on HDAC10 was “moderately selective for HDAC10”.
The same measure, in the same setting: the same measure for `O=C(CNC(=O)c1coc(-c2ccccc2O)n1)Nc1ccccc1` [Compound 24]: “moderately selective for HDAC10”.
